Activity calls are given as the source filed them. The calls are words filed in the database; no cut-off is given here.

The values that follow come from ChEMBL document CHEMBL1125924, “Thienotriazolodiazepines as platelet-activating factor antagonists. Steric limitations for the substituent in position 2” (J Med Chem, 1991).

Test [1] has as its system Cavia porcellus. As to the kind of experiment: In vivo inhibitory dose against PAF-induced bronchoconstriction in guinea pig upon peroral administration after […] pretreatment time. In kind it is functional. The conditions noted are these: po, read-out: ID50 (the source's name).
Test [2] has as its system Cavia porcellus. Nature of the test: In vivo inhibitory dose against PAF-induced bronchoconstriction in guinea pig upon intravenous administration after one-minute pre-treatment time. In kind it is functional. The following applies: read-out: ID50 (the source's name).
The subject of test [3] is Cavia porcellus. Nature of the test: In vivo inhibition against PAF-induced bronchoconstriction in guinea pig at 1 mg/kg dose upon peroral administration after […] pre-treatment time. The following applies: route oral. Format: functional.
Test [4] has as its system Cavia porcellus. As to the kind of experiment: In vivo inhibitory dose against PAF-induced bronchoconstriction in guinea pig upon intravenous administration after one-minute pretreatment time; IA=Inactive. In kind it is functional, organism-based.
Test [5] can be described thus: In vitro for platelet activating factor receptor antagonist activity in a binding assay using washed whole dog platelets.

In general, inhibition in vivo refers to the drop in the measured response relative to a control, in per cent. `Cc1nnc2n1-c1sc(CCc3ccc(C4CCCCC4)cc3)cc1C(c1ccccc1Cl)=NC2`: the ED50 with Cavia porcellus [1] came to 0.4 mg/kg; in the test on Cavia porcellus [2] it was 0.005 mg/kg. The inhibition in vivo at 1 mg/kg in the test on Cavia porcellus [3] was found to be 68%.

For the compound `Cc1cc(C#Cc2cc3c(s2)-n2c(C)nnc2CN=C3c2ccccc2Cl)cc2c1OC(C)(C)C2`, the ID50 entry in the test with Cavia porcellus [4] is “inactive”.

Turning to `Cc1nnc2n1-c1sc(C#C[Si](C)(C)C)cc1C(c1ccccc1Cl)=NC2`, in the test with Cavia porcellus [2], the ED50 worked out at 0.3 mg/kg. In addition, in the test with Cavia porcellus [3], the inhibition in vivo at 1 mg/kg is 28%.

As to `Cc1nnc2n1-c1sc(-c3cc(O)[nH]n3)cc1C(c1ccccc1Cl)=NC2`, in the test on Cavia porcellus [4], the ID50 entry is “inactive”.

Turning to `Cc1nnc2n1-c1sc(C#Cc3ccccn3)cc1C(c1ccccc1Cl)=NC2`, the ED50 in the test with Cavia porcellus [2] was 0.06 mg/kg. Moreover, the inhibition in vivo at 1 mg/kg in the test on Cavia porcellus [3] is 5%.

Take `CCCCc1ccc(CCc2cc3c(s2)-n2c(C)nnc2CN=C3c2ccccc2Cl)cc1`: the ED50 worked out at 0.2 mg/kg with Cavia porcellus [1] and 0.003 mg/kg in the test on Cavia porcellus [2]. In the test on Cavia porcellus [3], the inhibition in vivo at 1 mg/kg came to 98%.

Take `C#Cc1cc2c(s1)-n1c(C)nnc1CN=C2c1ccccc1Cl`: the ED50 with Cavia porcellus [2] amounted to 0.02 mg/kg. For the same compound, the inhibition in vivo at 1 mg/kg with Cavia porcellus [3] amounted to 9%.

With `Cc1nnc2n1-c1sc(C#Cc3ccccc3)cc1C(c1ccccc1Cl)=NC2`, the ED50 in the test with Cavia porcellus [2] was determined as 3 mg/kg. For the same compound, the inhibition in vivo at 1 mg/kg in the test on Cavia porcellus [3] turned out to be 6%.

In the case of `Cc1nnc2n1-c1sc(CCc3ccc(-n4ccnc4)cc3)cc1C(c1ccccc1Cl)=NC2`, the ED50 in the test with Cavia porcellus [1] worked out at 0.4 mg/kg; in the test with Cavia porcellus [2], 0.003 mg/kg. In the test on Cavia porcellus [3], the inhibition in vivo at 1 mg/kg came out at 95%.

Regarding `Cc1nnc2n1-c1sc(-c3[nH]nnc3C(=O)N3CCOCC3)cc1C(c1ccccc1Cl)=NC2`, the ID50 entry in the test with Cavia porcellus [4] is “inactive”.

For `Cc1nnc2n1-c1sc(/C=C\C(=O)N3CCOCC3)cc1C(c1ccccc1Cl)=NC2`, in the test on Cavia porcellus [2], the ED50 was found to be 0.06 mg/kg. The inhibition in vivo at 1 mg/kg in the test with Cavia porcellus [3] stood at 20%.

On to `Cc1nnc2n1-c1sc(/C=C\c3ccc(C4CCCCC4)cc3)cc1C(c1ccccc1Cl)=NC2`, for which the ED50 in the test on Cavia porcellus [1] was 0.4 mg/kg; in the test with Cavia porcellus [2], 0.03 mg/kg. In addition, the inhibition in vivo at 1 mg/kg with Cavia porcellus [3] turned out to be 85%.

Consider `Cc1nnc2n1-c1sc(C#CC(=O)N3CCOCC3)cc1C(c1ccccc1Cl)=NC2`, for which the ED50 in the test on Cavia porcellus [2] was determined as 0.5 mg/kg. Moreover, in the test with Cavia porcellus [3], the inhibition in vivo at 1 mg/kg was found to be 16%.

With `Cc1nnc2n1-c1sc(Br)cc1C(c1ccccc1Cl)=NC2` [BROTIZOLAM], in the test with Cavia porcellus [2], the ED50 came to 0.5 mg/kg. In the test on Cavia porcellus [3], the inhibition in vivo at 1 mg/kg came out at 11%.

On to `Cc1nnc2n1-c1sc(CCc3ccc(CC(C)C)cc3)cc1C(c1ccccc1Cl)=NC2`, for which the figures for the ED50 in the test with Cavia porcellus [1] and with Cavia porcellus [2] were 0.03 mg/kg and 0.002 mg/kg, respectively. Besides, the inhibition in vivo at 1 mg/kg with Cavia porcellus [3] worked out at 99%.

On to `Cc1cc(CCc2cc3c(s2)-n2c(C)nnc2CN=C3c2ccccc2Cl)cc2c1OC(C)(C)C2`, for which the ED50 was found to be 0.3 mg/kg in the test on Cavia porcellus [1] and 0.01 mg/kg in the test on Cavia porcellus [2]. Besides, in the test on Cavia porcellus [3], the inhibition in vivo at 1 mg/kg worked out at 96%.

As to `Cc1nnc2n1-c1sc(C#Cc3cccc4ccccc34)cc1C(c1ccccc1Cl)=NC2`, the ED50 with Cavia porcellus [2] was found to be 0.03 mg/kg. For the same compound, in the test with Cavia porcellus [3], the inhibition in vivo at 1 mg/kg is 14%.

For `Cc1nnc2n1-c1sc(/C=C\c3ccc(CC(C)C)cc3)cc1C(c1ccccc1Cl)=NC2`, the ED50 in the test with Cavia porcellus [1] turned out to be 0.03 mg/kg; in the test on Cavia porcellus [2], 0.004 mg/kg. Further, the inhibition in vivo at 1 mg/kg in the test with Cavia porcellus [3] came out at 99%.

Turning to `Cc1nnc2n1-c1sc(CCc3ccc(-c4ccccn4)s3)cc1C(c1ccccc1Cl)=NC2`, the ED50 in the test with Cavia porcellus [1] worked out at 0.4 mg/kg; in the test on Cavia porcellus [2], 0.003 mg/kg. In addition, the inhibition in vivo at 1 mg/kg in the test on Cavia porcellus [3] came to 89%.

As for `CCCCc1ccc(/C=C\c2cc3c(s2)-n2c(C)nnc2CN=C3c2ccccc2Cl)cc1`, the ED50 in the test with Cavia porcellus [1] came to 0.35 mg/kg; in the test on Cavia porcellus [2], 0.0004 mg/kg. Moreover, the inhibition in vivo at 1 mg/kg in the test on Cavia porcellus [3] stood at 93%.

Regarding `Cc1nnc2n1-c1sc(/C=C/C(=O)N3CCOCC3)cc1C(c1ccccc1Cl)=NC2`, the ED50 with Cavia porcellus [2] came to 0.4 mg/kg. In addition, the inhibition in vivo at 1 mg/kg in the test on Cavia porcellus [3] came out at 27%.

Take `Cc1nnc2n1-c1sc(C#Cc3ccc4c(c3)CCO4)cc1C(c1ccccc1Cl)=NC2`: the ED50 in the test with Cavia porcellus [2] was determined as 0.2 mg/kg. The inhibition in vivo at 1 mg/kg in the test on Cavia porcellus [3] is 7%.

Consider `Cc1nnc2n1-c1sc(C#CCO)cc1C(c1ccccc1Cl)=NC2`, for which the ED50 in the test on Cavia porcellus [2] stood at 0.02 mg/kg. In addition, the inhibition in vivo at 1 mg/kg in the test with Cavia porcellus [3] stood at 20%.

`Cc1nnc2n1-c1sc(C#Cc3ccc(CC(C)C)cc3)cc1C(c1ccccc1Cl)=NC2`: the ED50 in the test with Cavia porcellus [2] was found to be 0.3 mg/kg. For the same compound, the inhibition in vivo at 1 mg/kg in the test on Cavia porcellus [3] came to 2%.

On to `CCCCc1ccc(C#Cc2cc3c(s2)-n2c(C)nnc2CN=C3c2ccccc2Cl)cc1`, for which the ED50 in the test with Cavia porcellus [2] worked out at 0.2 mg/kg. For the same compound, the inhibition in vivo at 1 mg/kg in the test on Cavia porcellus [3] amounted to 6%.

Consider `Cc1nnc2n1-c1sc(CCC(=O)N3CCOCC3)cc1C(c1ccccc1Cl)=NC2` [APAFANT], for which the ED50 was 1.2 mg/kg in the test on Cavia porcellus [1] and 0.03 mg/kg with Cavia porcellus [2]. The inhibition in vivo at 1 mg/kg in the test on Cavia porcellus [3] is 42%.

For the compound `Cc1nnc2n1-c1sc(/C=C\c3ccccn3)cc1C(c1ccccc1Cl)=NC2`, the ED50 in the test with Cavia porcellus [2] was found to be 0.05 mg/kg. For the same compound, the inhibition in vivo at 1 mg/kg with Cavia porcellus [3] was 20%.

On to `Cc1nnc2n1-c1sc(/C=C\c3ccc4c(c3)CCC4)cc1C(c1ccccc1Cl)=NC2`, for which the ED50 worked out at 0.7 mg/kg with Cavia porcellus [1] and 0.03 mg/kg with Cavia porcellus [2]. Besides, in the test on Cavia porcellus [3], the inhibition in vivo at 1 mg/kg amounted to 58%.

`Cc1nnc2n1-c1sc(CCc3ccc4c(c3)CCC4)cc1C(c1ccccc1Cl)=NC2`: the ED50 with Cavia porcellus [1] worked out at 0.03 mg/kg; with Cavia porcellus [2] it was 0.04 mg/kg. Moreover, the inhibition in vivo at 1 mg/kg with Cavia porcellus [3] was 99%.

With `Cc1nnc2n1-c1sc(CCc3ccc4c(c3)CCO4)cc1C(c1ccccc1Cl)=NC2`, the ED50 in the test with Cavia porcellus [2] was 0.003 mg/kg. Besides, in the test with Cavia porcellus [3], the inhibition in vivo at 1 mg/kg is 44%.

Take `Cc1nnc2n1-c1sc(C#Cc3ccc(C4CCCCC4)cc3)cc1C(c1ccccc1Cl)=NC2`: the ED50 with Cavia porcellus [2] turned out to be 0.3 mg/kg. Also, the inhibition in vivo at 1 mg/kg with Cavia porcellus [3] was 22%.

Turning to `Cc1nnc2n1-c1sc(C#Cc3ccc(-c4ccccn4)s3)cc1C(c1ccccc1Cl)=NC2`, the ED50 was found to be 0.08 mg/kg in the test on Cavia porcellus [1] and 0.003 mg/kg with Cavia porcellus [2]. The inhibition in vivo at 1 mg/kg in the test with Cavia porcellus [3] turned out to be 93%.

On to `Cc1nnc2n1-c1sc(C#Cc3ccc4c(c3)CCC4)cc1C(c1ccccc1Cl)=NC2`, for which the ED50 with Cavia porcellus [2] turned out to be 0.2 mg/kg. For the same compound, the inhibition in vivo at 1 mg/kg in the test on Cavia porcellus [3] was determined as 20%.

For `Cc1nnc2n1-c1sc(/C(CC(=O)N3CCOCC3)=N\N)cc1C(c1ccccc1Cl)=NC2`, the ED50 in the test with Cavia porcellus [2] was found to be 0.5 mg/kg. The inhibition in vivo at 1 mg/kg with Cavia porcellus [3] amounted to 12%.

One may read the IC50 as the point on the concentration scale where inhibition reaches its midpoint. A low value points to inhibition by little substance. Take `Cc1nnc2n1-c1sc(I)cc1C(c1ccccc1Cl)=NC2`: the half-maximal inhibitory concentration (IC50) in test [5] stood at 370 nM. Also, the ED50 with Cavia porcellus [2] was determined as 0.2 mg/kg. The inhibition in vivo at 1 mg/kg in the test on Cavia porcellus [3] turned out to be 4%.
